Experimental data from US10201516B2 (The Regents of the University of California, priority 2014, dated 2019).

Key:
[1] = test system: NIH/3T3 cells; assay: Sphere formation assay in NIH/3T3 cells; type: cell-based, mouse; conditions: for sphere forming efficiency: K-Ras^V12 transformed NIH/3T3 cells (FIG. 10F); for sphere formation: vector control or H-Ras^V12 transformed NIH/3T3 (FIG. 10F)
Method: (§1) Tankyrase inhibitors, JW55, Cardinogenl, and JW67, were purchased from R&D Systems. The cells were treated with the inhibitors at 0.5 μM for 12 hours for TOPFlash assays. For sphere formation assays, the cells were cultured in complete medium with different Tankyrase inhibitors.
Cells were harvested, counted and seeded into Ultra Low Attachment Culture 96-well plate (Corning Life Science, Catalog number 3261) at 10 or 100 cells per well. The seeded cells and formed spheres were maintained in low serum containing medium with 0.1% FBS or CS. The initiated spheres were observed twice and week. The numbers of formed spheres were counted one month after seeding. The spheres were harvested and re-seeded into 12-well or 24-well plate with complete growth medium at one sphere per well. The re-plated colonies were stained and visualized by 0.05% crystal violet staining (in […]).

[2] = test system: β-catenin/TCF/LEF transcriptional activity; assay: TOPFlash assay in NIH/3T3 cells; type: cell-based, mouse; conditions: for β-catenin/TCF/LEF transcriptional activity (TOPFlash): Ras^V12-transformed NIH/3T3 cells, 0.5 μM for 12 hours (FIG. 10E)
Method: as §1
Cells were transfected with TOPFlash (Addgene#12456), FOPFlash (Addgene#12457) or pGL3-NFAT (Addgene#17870) luciferase reporter constructs by using Fugene6 (Roche). 48th hour post-transfection the luciferase activities in cell lysates were measured using Bright-Glo Luciferase Assay System (Promega) according to the manufacturer's instructions.

[3] = test system: CaMKii; assay: Western blot of phospho-CaMKii in Ras-transformed NIH/3T3 cells (and human pancreatic cancer cell lines); type: cell-based, mouse; conditions: NIH/3T3-H-Ras^V12 and vector control cells (FIG. 3B)
Method: (§2) Experimental cells were washed twice in ice-cold PBS and lysed in 1% Triton lysis buffer [25 mmol/L Tris pH 7.5, 150 mmol/L NaCl, 1% Triton X-100, 1 mmol/L EDTA, 1 mmol/L EGTA, 20 mmol/L NaF, 1 mmol/L […], and 1 mmol/L DTT] supplemented with a protease inhibitor cocktail (Roche) and cleared by centrifugation. Protein concentrations were determined by the Bio-Rad Protein Assay (Bio-Rad). Equal amounts of protein extracts were resolved using SDS-PAGE (NuPAGE; Invitrogen), transferred to a nitrocellulose membrane, and immunoblotted with primary antibodies indicated, followed by secondary antibodies labeled with either IRDye800 (Rockland) or Alexa Fluor 680 (Molecular Probes) and were visualized using a LI-COR Odyssey scanner. A complete list of primary antibodies is provided in the Extended Experimental Procedures.

[4] = test system: Fzd8; assay: Western blot of Fzd8 expression in NIH/3T3 cells; type: cell-based, mouse; conditions: NIH/3T3-H-Ras^V12 cells (FIG. 3B)
Method: as §2

[5] = PKC activators, literature; cited from earlier work

SMILES	sphere forming efficiency [1]	sphere formation [1]	β-catenin/TCF/LEF transcriptional activity (TOPFlash) [2]	sphere forming efficiency and size of spheroid colonies ([1]; NIH/3T3-H-Ras^V12 cells (FIG. 3D))	β-catenin transcriptional activity ([2]; NIH/3T3-H-Ras^V12 cells (FIG. 3C))	phosphorylation of CaMKii [3]	Fzd8 expression [4]	tumor promotion [5]
O=C1Nc2ccccc2C12OCC1(CO2)COC2(OC1)C(=O)Nc1ccccc12 (centres unmarked) [JW67]	still maintained their sphere forming efficiency	inhibited sphere formation	successfully repressed β-catenin/TCF/LEF transcriptional activity	–	–	–	–	–
c1coc(-c2nnc3sc(C4CCCCC4)nn23)c1 [cardionogen1]	still maintained their sphere forming efficiency	inhibited sphere formation	successfully repressed β-catenin/TCF/LEF transcriptional activity	–	–	–	–	–
COc1ccc(S(=O)(=O)N(CCO)c2ccccc2CN(C)C/C=C/c2ccc(Cl)cc2)cc1 [KN-93]	–	–	–	dramatically enhanced the sphere forming efficiency and the size of spheroid colonies	increased β-catenin transcriptional activity	reduced phosphorylation of CaMKii	reduced Fzd8 expression	–
COc1ccc(C2(CNC(=O)c3ccc(NC(=O)c4ccco4)cc3)CCOCC2)cc1 [JW55]	still maintained their sphere forming efficiency	inhibited sphere formation	successfully repressed β-catenin/TCF/LEF transcriptional activity	–	–	–	–	–
CCCCCCCCCCCCCC(=O)O[C@@H]1[C@@H](C)[C@@]2(O)[C@@H](C=C(CO)C[C@]3(O)C(=O)C(C)=C[C@@H]23)[C@@H]2C(C)(C)[C@]12OC(C)=O [PMA, phorbol-12-myristate-13-acetate, reference compound]	–	–	–	–	–	–	–	tumor promoting
